Columns and labels:
Assay in all cases: cells
Settings in all cases: Homo sapiens
[1] = system: NCI-H446; assay type: functional, cell-based;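 further: growth inhibition of NCI-H446 cells determined by a cell viability assay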
Description: SANGER: Inhibition of human NCI-H446 cell growth in a cell viability assay.

[2] = system: SK-MEL-1; assay type: functional, cell-based;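 further: growth inhibition of human SK-MEL-1 cells, read out by a cell viability assay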
Description: SANGER: Inhibition of human SK-MEL-1 cell growth in a cell viability assay.

[3] = system: NB69; assay type: functional, cell-based;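 further: growth inhibition of NB69 cells, determined by a cell viability assay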
Description: SANGER: Inhibition of human NB69 cell growth in a cell viability assay.

[4] = system: LU-134-A; assay type: functional, cell-based
Description: SANGER: Inhibition of human LU-134-A cell growth in a cell viability assay.

[5] = system: MSTO-211H; assay type: functional, cell-based
Description: SANGER: Inhibition of human MSTO-211H cell growth in a cell viability assay.

[6] = system: MZ2-MEL; assay type: functional, cell-based;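 further: growth inhibition of MZ2-MEL cells read out with a cell viability assay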
Description: SANGER: Inhibition of human MZ2-MEL cell growth in a cell viability assay.

[7] = system: MOLT-4; assay type: functional, cell-based;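 further: growth inhibition of MOLT-4 cells, determined with a cell viability readout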
Description: SANGER: Inhibition of human MOLT-4 cell growth in a cell viability assay.

[8] = system: SNU1; assay type: functional, cell-based;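 further: growth inhibition of human NCI-SNU-1 cells, measured with a cell viability assay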
Description: SANGER: Inhibition of human NCI-SNU-1 cell growth in a cell viability assay.

[9] = system: GI-1; assay type: functional, cell-based;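 further: growth inhibition of human GI-1 cells, measured with a cell viability readout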
Description: SANGER: Inhibition of human GI-1 cell growth in a cell viability assay.

[10] = system: TGBC24TKB; assay type: functional, cell-based;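 further: growth inhibition of human TGBC24TKB cells, read out with a cell viability assay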
Description: SANGER: Inhibition of human TGBC24TKB cell growth in a cell viability assay.

[11] = system: ATN-1; assay type: functional, cell-based;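 further: growth inhibition of human ATN-1 cells, read out with a cell viability assay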
Description: SANGER: Inhibition of human ATN-1 cell growth in a cell viability assay.

[12] = system: RPMI-8226; assay type: functional, cell-based
Description: SANGER: Inhibition of human RPMI-8226 cell growth in a cell viability assay.

[13] = system: NH-12; assay type: functional, cell-based;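 further: growth inhibition of NH-12 cells, read out with a cell viability assay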
Description: SANGER: Inhibition of human NH-12 cell growth in a cell viability assay.

[14] = system: MLMA; assay type: functional, cell-based;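 further: growth inhibition of MLMA cells (human), determined through a cell viability readout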
Description: SANGER: Inhibition of human MLMA cell growth in a cell viability assay.

[15] = system: DMS-114; assay type: functional, cell-based
[16] = system: CTB-1; assay type: functional, cell-based
Description: SANGER: Inhibition of human CTB-1 cell growth in a cell viability assay.

[17] = system: BB30-HNC; assay type: functional, cell-based;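 further: growth inhibition of the cultured cell line, read out by a cell viability assay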
Description: SANGER: Inhibition of human BB30-HNC cell growth in a cell viability assay.

[18] = system: BB65-RCC; assay type: functional, cell-based;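 further: growth inhibition of the cell line, measured with a cell viability assay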
Description: SANGER: Inhibition of human BB65-RCC cell growth in a cell viability assay.

[19] = system: MV4-11; assay type: functional, cell-based, MV-4-11;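 further: cell viability readout measuring growth inhibition of human MV-4-11 cells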
Description: SANGER: Inhibition of human MV-4-11 cell growth in a cell viability assay.

[20] = system: KP-N-YS; assay type: functional, cell-based;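 further: cell viability assay measuring inhibition of cell line growth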
Description: SANGER: Inhibition of human KP-N-YS cell growth in a cell viability assay.

[21] = system: ES7; assay type: functional, cell-based;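 further: growth inhibition of cultured human ES7 cells, read out as cell viability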
Description: SANGER: Inhibition of human ES7 cell growth in a cell viability assay.

[22] = system: LS-513; assay type: functional, cell-based
Description: SANGER: Inhibition of human LS-513 cell growth in a cell viability assay.

[23] = system: OCI-AML2; assay type: functional, cell-based;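 further: growth inhibition of OCI-AML2 cells, read out with a cell viability assay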
Description: SANGER: Inhibition of human OCI-AML2 cell growth in a cell viability assay.

[24] = system: SK-N-FI; assay type: functional, cell-based;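 further: cell viability assay measuring growth inhibition of human SK-N-FI cells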
Description: SANGER: Inhibition of human SK-N-FI cell growth in a cell viability assay.

[25] = system: IST-MES1; assay type: functional, cell-based;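 further: growth inhibition of IST-MES1 cells, measured with a cell viability assay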
Description: SANGER: Inhibition of human IST-MES1 cell growth in a cell viability assay.

[26] = system: ES6; assay type: functional, cell-based;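 further: growth inhibition of human ES6 cells, read out with a cell viability assay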
Description: SANGER: Inhibition of human ES6 cell growth in a cell viability assay.

[27] = system: LB771-HNC; assay type: functional, cell-based;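 further: growth inhibition of LB771-HNC human cells, read out with a cell viability assay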
Description: SANGER: Inhibition of human LB771-HNC cell growth in a cell viability assay.

[28] = system: 697; assay type: functional, cell-based
Description: SANGER: Inhibition of human 697 cell growth in a cell viability assay.

[29] = system: ES1; assay type: functional, cell-based;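 further: growth inhibition of ES1 cells, read out with a cell viability assay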
Description: SANGER: Inhibition of human ES1 cell growth in a cell viability assay.

[30] = system: Ramos-2G6-4C10; assay type: functional, cell-based;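 further: growth inhibition of the cell line, measured by a cell viability read-out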
Description: SANGER: Inhibition of human Ramos-2G6-4C10 cell growth in a cell viability assay.

[31] = system: ES3; assay type: functional, cell-based;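 further: growth inhibition of ES3 cells, read out with a cell viability assay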
Description: SANGER: Inhibition of human ES3 cell growth in a cell viability assay.

[32] = system: SF-539; assay type: functional, cell-based;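 further: Read-out is a cell viability assay, with IC50 reflecting inhibition of cell growth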
Description: SANGER: Inhibition of human SF539 cell growth in a cell viability assay.

[33] = system: OMC-1; assay type: functional, cell-based;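 further: growth inhibition of the OMC-1 cell line, measured by a cell viability assay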
Description: SANGER: Inhibition of human OMC-1 cell growth in a cell viability assay.

[34] = system: SW982; assay type: functional, cell-based;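 further: growth inhibition of SW982 cells, read out with a cell viability assay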
Description: SANGER: Inhibition of human SW982 cell growth in a cell viability assay.

[35] = system: LB2241-RCC; assay type: functional, cell-based;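 further: cell viability assay measuring how strongly the cultured human renal carcinoma line is prevented from growing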
Description: SANGER: Inhibition of human LB2241-RCC cell growth in a cell viability assay.

[36] = system: ONS-76; assay type: functional, cell-based;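 further: growth inhibition of human ONS-76 cells, read out with a cell viability assay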
Description: SANGER: Inhibition of human ONS-76 cell growth in a cell viability assay.

[37] = system: NB13; assay type: functional, cell-based;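 further: cell viability readout measuring growth inhibition of human NB13 cells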
Description: SANGER: Inhibition of human NB13 cell growth in a cell viability assay.

[38] = system: SNB-75; assay type: functional, cell-based;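 further: cell viability assay measuring growth inhibition of human SNB-75 cells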
Description: SANGER: Inhibition of human SNB75 cell growth in a cell viability assay.

[39] = system: CW-2; assay type: functional, cell-based;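 further: growth inhibition of CW-2 cells, read out by a cell viability assay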
Description: SANGER: Inhibition of human CW-2 cell growth in a cell viability assay.

[40] = system: DU-4475; assay type: functional, cell-based
Description: SANGER: Inhibition of human DU-4475 cell growth in a cell viability assay.

[41] = system: Becker; assay type: functional, cell-based;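 further: growth inhibition of Becker cells, read out with a cell viability assay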
Description: SANGER: Inhibition of human Becker cell growth in a cell viability assay.

[42] = system: GB-1; assay type: functional, cell-based;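 further: growth of GB-1 cells judged by a viability assay, IC50 marks the concentration inhibiting growth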
Description: SANGER: Inhibition of human GB-1 cell growth in a cell viability assay.

[43] = system: HDLM-2; assay type: functional, cell-based;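 further: cell viability assay measuring suppression of HDLM-2 proliferation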
Description: SANGER: Inhibition of human HDLM-2 cell growth in a cell viability assay.

[44] = system: SW 954; assay type: functional, cell-based;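 further: growth inhibition of SW954 human cancer cells, read out as cell viability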
Description: SANGER: Inhibition of human SW954 cell growth in a cell viability assay.

[45] = system: KG-1; assay type: functional, cell-based;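 further: growth inhibition of KG-1 cells, read out by a cell viability assay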
Description: SANGER: Inhibition of human KG-1 cell growth in a cell viability assay.

[46] = system: D283 Med; assay type: functional, cell-based
Description: SANGER: Inhibition of human D-283MED cell growth in a cell viability assay.

[47] = system: MHH-PREB-1; assay type: functional, cell-based;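 further: cell viability assay measuring inhibition of proliferation of human MHH-PREB-1 cells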
Description: SANGER: Inhibition of human MHH-PREB-1 cell growth in a cell viability assay.

[48] = system: JVM-3; assay type: functional, cell-based;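 further: growth inhibition of human JVM-3 cells, read out with a cell viability assay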
Description: SANGER: Inhibition of human JVM-3 cell growth in a cell viability assay.

[49] = system: D-502MG; assay type: functional, cell-based
Description: SANGER: Inhibition of human D-502MG cell growth in a cell viability assay.

[50] = system: SW684; assay type: functional, cell-based;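 further: growth inhibition of human SW684 cells, measured by a cell viability assay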
Description: SANGER: Inhibition of human SW684 cell growth in a cell viability assay.

[51] = system: U-266; assay type: functional, cell-based
Description: SANGER: Inhibition of human U-266 cell growth in a cell viability assay.

[52] = system: J-RT3-T3-5; assay type: functional, cell-based;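 further: cell viability assay measuring growth inhibition of human J-RT3-T3-5 cells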
Description: SANGER: Inhibition of human J-RT3-T3-5 cell growth in a cell viability assay.

[53] = system: KURAMOCHI; assay type: functional, cell-based;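 further: growth inhibition of KURAMOCHI cells, read out with a cell viability assay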
Description: SANGER: Inhibition of human KURAMOCHI cell growth in a cell viability assay.

[54] = system: NCI-H1299; assay type: functional, cell-based;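 further: growth inhibition of human NCI-H1299 cells, read out by a cell viability assay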
Description: SANGER: Inhibition of human NCI-H1299 cell growth in a cell viability assay.

[55] = system: HT; assay type: functional, cell-based
Description: SANGER: Inhibition of human HT cell growth in a cell viability assay.

[56] = system: ALL-PO; assay type: functional, cell-based;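 further: growth inhibition of ALL-PO cells, read out by a cell viability assay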
Description: SANGER: Inhibition of human ALL-PO cell growth in a cell viability assay.

[57] = system: NCI-H1770; assay type: functional, cell-based;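 further: growth inhibition of NCI-H1770 cells determined with a viability readout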
Description: SANGER: Inhibition of human NCI-H1770 cell growth in a cell viability assay.

[58] = system: CP66-MEL; assay type: functional, cell-based;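 further: growth inhibition of CP66-MEL cells determined in a cell viability assay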
Description: SANGER: Inhibition of human CP66-MEL cell growth in a cell viability assay.

[59] = system: MC116; assay type: functional, cell-based;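 further: growth inhibition of MC116 cells, read out with a cell viability assay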
Description: SANGER: Inhibition of human MC116 cell growth in a cell viability assay.

[60] = system: HCC2218; assay type: functional, cell-based
Description: SANGER: Inhibition of human HCC2218 cell growth in a cell viability assay.

[61] = system: LU-139; assay type: functional, cell-based
Description: SANGER: Inhibition of human LU-139 cell growth in a cell viability assay.

[62] = system: KU812 cell line; assay type: functional, cell-based
Description: SANGER: Inhibition of human KU812 cell growth in a cell viability assay.

O=c1cc(N2CCOCC2)oc2c(-c3cccc4c3sc3ccccc34)cccc12 showed an IC50 [1] greater than 2000 nM, an IC50 [2] of 1790 nM and an IC50 [3] greater than 2000 nM. It also gave an IC50 [4] greater than 2000 nM, an IC50 [5] greater than 2000 nM and an IC50 [6] greater than 2000 nM. For the same molecule, the IC50 [7] was greater than 2000 nM, the IC50 [8] was 610 nM and the IC50 [9] was greater than 2000 nM. It also gave an IC50 [10] greater than 2000 nM, an IC50 [11] greater than 2000 nM and an IC50 [12] greater than 2000 nM. The IC50 [13] was greater than 2000 nM, the IC50 [14] was greater than 2000 nM and the IC50 [15] was greater than 2000 nM. The IC50 [16] was 1120 nM, the IC50 [17] was greater than 2000 nM and the IC50 [18] was greater than 2000 nM. It also gave an IC50 [19] greater than 2000 nM, an IC50 [20] of 1140 nM and an IC50 [21] greater than 2000 nM. The IC50 [22] was greater than 2000 nM, the IC50 [23] was greater than 2000 nM and the IC50 [24] was greater than 2000 nM. It also gave an IC50 [25] greater than 2000 nM, an IC50 [26] greater than 2000 nM and an IC50 [27] greater than 2000 nM. The IC50 [28] was greater than 2000 nM, the IC50 [29] was greater than 2000 nM and the IC50 [30] was greater than 2000 nM. For the same molecule, the IC50 [31] was greater than 2000 nM, the IC50 [32] was greater than 2000 nM and the IC50 [33] was greater than 2000 nM. For the same molecule, the IC50 [34] was greater than 2000 nM, the IC50 [35] was greater than 2000 nM and the IC50 [36] was greater than 2000 nM. It also gave an IC50 [37] greater than 2000 nM, an IC50 [38] greater than 2000 nM and an IC50 [39] greater than 2000 nM. The IC50 [40] was greater than 2000 nM, the IC50 [41] was greater than 2000 nM and the IC50 [42] was greater than 2000 nM. It also gave an IC50 [43] of 323 nM, an IC50 [44] greater than 2000 nM and an IC50 [45] greater than 2000 nM. The IC50 [46] was greater than 2000 nM, the IC50 [47] was greater than 2000 nM and the IC50 [48] was greater than 2000 nM. It also gave an IC50 [49] greater than 2000 nM, an IC50 [50] greater than 2000 nM and an IC50 [51] greater than 2000 nM. The IC50 [52] was greater than 2000 nM, the IC50 [53] was greater than 2000 nM and the IC50 [54] was greater than 2000 nM. The IC50 [55] was greater than 2000 nM, the IC50 [56] was greater than 2000 nM and the IC50 [57] was 21.4 nM. It also gave an IC50 [58] greater than 2000 nM and an IC50 [59] greater than 2000 nM.
In the case of Cn1c(=O)n(-c2ccc(C(C)(C)C#N)cc2)c2c3cc(-c4cnc5ccccc5c4)ccc3ncc21 [DACTOLISIB], the IC50 [1] is reported as 95.1 nM, the IC50 [2] is reported as greater than 2000 nM and the IC50 [3] is reported as 22.5 nM. For the same molecule, the IC50 [4] was 79 nM, the IC50 [5] was 63.5 nM and the IC50 [6] was 39.7 nM. The IC50 [7] was 25.1 nM, the IC50 [8] was 22 nM and the IC50 [60] was 6.61 nM. For the same molecule, the IC50 [9] was 60.3 nM, the IC50 [10] was 222 nM and the IC50 [11] was 73.9 nM. The IC50 [12] was 33.8 nM, the IC50 [13] was 133 nM and the IC50 [14] was 137 nM. The IC50 [15] was 125 nM, the IC50 [16] was 24.7 nM and the IC50 [17] was 131 nM. The IC50 [18] was 12.7 nM, the IC50 [19] was 28.7 nM and the IC50 [20] was 185 nM. It also gave an IC50 [21] of 18.1 nM, an IC50 [22] of 141 nM and an IC50 [61] of 7.77 nM. For the same molecule, the IC50 [23] was 82.6 nM, the IC50 [24] was 148 nM and the IC50 [25] was 237 nM. For the same molecule, the IC50 [26] was 92.8 nM, the IC50 [27] was 286 nM and the IC50 [28] was 17.4 nM. The IC50 [29] was 28.8 nM, the IC50 [30] was 8.49 nM and the IC50 [31] was 25.2 nM. It also gave an IC50 [32] of 52.3 nM, an IC50 [33] of 100 nM and an IC50 [34] of 49.9 nM. The IC50 [35] was 14 nM, the IC50 [36] was 29.1 nM and the IC50 [37] was 118 nM. For the same molecule, the IC50 [38] was 54.3 nM, the IC50 [39] was 270 nM and the IC50 [40] was 9.44 nM. It also gave an IC50 [41] of 34.2 nM, an IC50 [42] of 54.2 nM and an IC50 [43] greater than 2000 nM. The IC50 [44] was 234 nM, the IC50 [62] was 68.7 nM and the IC50 [45] was 84.2 nM. It also gave an IC50 [46] of 49.6 nM, an IC50 [47] of 9.12 nM and an IC50 [48] of 30.8 nM. The IC50 [49] was 106 nM, the IC50 [50] was 196 nM and the IC50 [51] was 206 nM. The IC50 [52] was 23 nM, the IC50 [53] was 266 nM and the IC50 [54] was 150 nM. For the same molecule, the IC50 [55] was 41 nM, the IC50 [56] was 416 nM and the IC50 [57] was 327 nM. For the same molecule, the IC50 [59] was 57.8 nM.
CC(=O)c1c(C)c2cnc(Nc3ccc(N4CCNCC4)cn3)nc2n(C2CCCC2)c1=O [PALBOCICLIB] gave an IC50 [1] greater than 4000 nM, an IC50 [2] greater than 4000 nM and an IC50 [3] of 162 nM. It also gave an IC50 [4] greater than 4000 nM, an IC50 [5] of 1700 nM and an IC50 [6] of 1800 nM. It also gave an IC50 [7] of 345 nM, an IC50 [8] of 1160 nM and an IC50 [60] of 2350 nM. The IC50 [9] was greater than 4000 nM, the IC50 [10] was greater than 4000 nM and the IC50 [11] was greater than 4000 nM. The IC50 [12] was 527 nM, the IC50 [13] was greater than 4000 nM and the IC50 [14] was greater than 4000 nM. It also gave an IC50 [15] greater than 4000 nM, an IC50 [16] of 405 nM and an IC50 [17] greater than 4000 nM. It also gave an IC50 [18] of 1510 nM, an IC50 [19] of 514 nM and an IC50 [20] of 3620 nM. The IC50 [21] was 273 nM, the IC50 [22] was greater than 4000 nM and the IC50 [61] was greater than 4000 nM. The IC50 [23] was greater than 4000 nM, the IC50 [24] was greater than 4000 nM and the IC50 [25] was 3830 nM. The IC50 [26] was greater than 4000 nM, the IC50 [27] was greater than 4000 nM and the IC50 [28] was 148 nM. For the same molecule, the IC50 [29] was 256 nM, the IC50 [30] was 2770 nM and the IC50 [31] was 729 nM. It also gave an IC50 [32] greater than 4000 nM, an IC50 [33] greater than 4000 nM and an IC50 [34] greater than 4000 nM. For the same molecule, the IC50 [35] was 1190 nM, the IC50 [36] was 678 nM and the IC50 [37] was greater than 4000 nM. It also gave an IC50 [38] greater than 4000 nM, an IC50 [39] greater than 4000 nM and an IC50 [40] greater than 4000 nM. For the same molecule, the IC50 [41] was 2960 nM, the IC50 [42] was greater than 4000 nM and the IC50 [43] was greater than 4000 nM. For the same molecule, the IC50 [44] was 929 nM, the IC50 [62] was 1890 nM and the IC50 [45] was 1270 nM. For the same molecule, the IC50 [46] was 2720 nM, the IC50 [47] was 637 nM and the IC50 [48] was 852 nM. It also gave an IC50 [49] greater than 4000 nM, an IC50 [50] greater than 4000 nM and an IC50 [51] greater than 4000 nM. It also gave an IC50 [52] of 936 nM, an IC50 [53] greater than 4000 nM and an IC50 [54] of 3050 nM. For the same molecule, the IC50 [55] was greater than 4000 nM, the IC50 [56] was greater than 4000 nM and the IC50 [57] was 941 nM. It also gave an IC50 [59] greater than 4000 nM.
